For one series, the system named is KATP channels. Details: method as in PMID 12525701. Conditions: cited from earlier work.
The next series has as its target His175 (UniProt position 175, KTAQAHRRAET). Briefly: electrophysiology. The following applies: cited from earlier work.
Series [1] deals with T1, SUR1^K134A/Kir6.2^R176A double mutant channel (UniProt P70673+Q09427, K134A/R176A).
T1 construct: expressed in transfected cells; host or cells: COSm6
As to the kind of experiment: PIP2 response, inside-out patch-clamp recording, COSm6 cells. The format is biochemical, rat Kir6.2, hamster SUR1. Conditions: 5 μM PIP2; −50 mV; mean (± SEM). How it is done: (§1) Fig. 3 Functional testing of the two PIP2 binding sites. a Representative inside-out patch-clamp recordings (−50mV, inward currents shown as upward deflections; the red dashed line indicates 0 currents) of various channels: WT, SUR1^K134A (the non-canonical PIP2 binding site mutation)/Kir6.2, SUR1/Kir6.2^R176A (the canonical PIP2 binding site mutation), and SUR1^K134A/Kir6.2^R176A double mutant, exposed alternately in 5 μM PIP2, 0.1 mM ATP, and 1 mM ATP as indicated by the bars above the recordings. The brief exposures to 0.1 mM and 1 mM ATP between PIP2 exposures were used to monitor the gradual decrease in ATP sensitivity as channel opening became increasingly stabilized by PIP2. b Group data of recordings shown in (a) comparing initial currents in K-INT at the time of patch excision. For each group, mean ± SEM of the data points are shown (WT, n = 12; SUR1^K134A, n = 6; Kir6.2^R176A, n = 7; SUR1^K134A/Kir6.2^R176A, n = 6 cells). Statistical significance was tested between mutants and WT or between double and single mutants using two-tailed unpaired t test with Welch’s correction, alpha = 0.05. *SUR1^K134A vs WT, p = 0.0468; ** Kir6.2^R176A vs WT, p = 0.0016; **SUR1^K134A/Kir6.2^R176A vs WT, p = 0.0014; ^#SUR1^K134A/Kir6.2^R176A vs SUR1^K134A, p = 0.0440; ^$SUR1^K134A/Kir6.2^R176A vs Kir6.2^R176A, p = 0.0411. Note the y-axis in this panel and panel (c) is in log scale for better visualization. c Comparison of the maximum fold-increase in currents after PIP2 exposure in different channels. For each group, mean ± SEM of the data points are shown (WT, n = 12; SUR1^K134A, n = 6; Kir6.2^R176A, n = 7; SUR1^K134A/Kir6.2^R176A, n = 5 cells). Statistical significance was tested between mutants and WT or between double and single mutants using two-tailed unpaired t test, alpha = 0.05. ***SUR1^K134A vs WT, p < 0.0001; ** Kir6.2^R176A vs WT, p = 0.0029; **SUR1^K134A/Kir6.2^R176A vs WT, p = 0.0012; ^#SUR1^K134A/Kir6.2^R176A vs SUR1^K134A, p = 0.0247; ^$SUR1^K134A/Kir6.2^R176A vs Kir6.2^R176A, p = 0.0353. d Comparison of the time of exposure in PIP2 for currents to reach maximum in different channels. For each group, mean ± SEM of the data points are shown (WT, n = 12; SUR1^K134A, n = 6; Kir6.2^R176A, n = 7; SUR1^K134A/Kir6.2^R176A, n = 6 cells). Statistical significance was tested between mutants and WT or between double and single mutants using two-tailed unpaired t test, alpha = 0.05. ***SUR1^K134A vs WT, p < 0.0001; ***Kir6.2^R176A vs WT, p = 0.0002; ***SUR1^K134A/Kir6.2^R176A vs WT, p < 0.0001; ^##SUR1^K134A/Kir6.2^R176A vs SUR1^K134A, p = 0.0071.
(§2) For electrophysiology experiments, COSm6 cells were co-transfected with various combination of WT or mutant SUR1 and Kir6.2 cDNAs (SUR1 in pECE and Kir6.2 in pCDNA3) along with the cDNA for the Green Fluorescent Protein (to facilitate identification of transfected cells) using FuGENE® 6 (Promega). Mutant SUR1 and Kir6.2 were constructed using QuikChange (mutagenesis primers are shown in Supplementary Table 2). Cells were plated onto glass coverslips 24 h after transfection and recordings made in the following two days. All experiments were performed at room temperature. Micropipettes were pulled from non-heparinized Kimble glass (Fisher Scientific) on a horizontal puller (Sutter Instrument). Electrode resistance was typically 1-2 MΩ when filled with K-INT solution containing 140 mM KCl, 10 mM K-HEPES, 1 mM K-EGTA, 1 mM EDTA, pH 7.3. ATP was added as the potassium salt. Inside-out patches of cells bathed in K-INT were voltage-clamped with an Axopatch 1D amplifier (Axon Instruments). ATP or porcine brain PIP2 (Avanti Polar Lipids; prepared in K-INT and bath sonicated in ice water for 30 min before use) were added to K-INT as specified in the figure legend. All currents were measured at a membrane potential of −50 mV (pipette voltage = +50 mV). Data were analyzed using pCLAMP10 software (Axon Instrument). Off-line analysis was performed using Clampfit and GraphPad. […]
Background: In patch-clamp work, channel activity is measured electrically.

The target of series [2] is T2, SUR1/Kir6.2^R176A channel (UniProt P70673+Q09427, R176A).
T2 construct: expressed in transfected cells; host or cells: COSm6
Described as above. It counts as biochemical, rat Kir6.2, hamster SUR1. Conditions: 5 μM PIP2; −50 mV; mean (± SEM). How it is done: as §1, §2

Series [3] concerns the target T3, WT (SUR1/Kir6.2) KATP channels (UniProt P70673+Q09427).
T3 construct: expressed in transfected cells; host or cells: COSm6
The series is described as above. The format is biochemical, rat Kir6.2, hamster SUR1. The following applies: 5 μM PIP2. As to the method:
as §1, §2

The target of series [4] is T4, SUR1^K134A/Kir6.2 channel (UniProt P70673+Q09427, K134A).
T4 construct: expressed in transfected cells; host or cells: COSm6
The description is as above. The format is biochemical, rat Kir6.2, hamster SUR1. The following applies: 5 μM PIP2; −50 mV; mean (± SEM). How it is done:
as §1, §2

Series [5] deals with the molecule itself. Briefly: cryo-EM structure; SUR1/Kir6.2^Q52R channel co-expressed in COSm6 cells; membranes enriched with brain PIP2 (1 mg/mL) before solubilisation in digitonin; purified via the N-terminal FLAG tag on SUR1; 0.2 M NaCl, 0.1 M KCl, 0.05 M HEPES pH 7.5, 0.05% digitonin; no ATP or ADP added; graphene oxide-coated grids.

Where “and” joins values, the source holds several entries; their conditions need not be identical. Equal values may be shown once.

Usually pKa stands for the pH at which an ionisable group is half protonated. In general, stoichiometry N refers to a count of units in the complex or per binding partner.

T3 sequence (P70673 whole entry): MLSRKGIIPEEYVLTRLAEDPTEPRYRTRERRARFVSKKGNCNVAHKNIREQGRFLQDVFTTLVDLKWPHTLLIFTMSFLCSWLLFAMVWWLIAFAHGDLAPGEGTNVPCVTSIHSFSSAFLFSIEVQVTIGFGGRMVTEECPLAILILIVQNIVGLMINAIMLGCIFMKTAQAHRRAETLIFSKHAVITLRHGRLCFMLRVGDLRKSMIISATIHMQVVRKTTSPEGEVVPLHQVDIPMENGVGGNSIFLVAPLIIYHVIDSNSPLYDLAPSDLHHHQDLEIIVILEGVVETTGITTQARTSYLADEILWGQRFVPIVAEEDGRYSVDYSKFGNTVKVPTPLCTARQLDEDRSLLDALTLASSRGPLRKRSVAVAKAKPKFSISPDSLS
T3 sequence (Q09427 whole entry): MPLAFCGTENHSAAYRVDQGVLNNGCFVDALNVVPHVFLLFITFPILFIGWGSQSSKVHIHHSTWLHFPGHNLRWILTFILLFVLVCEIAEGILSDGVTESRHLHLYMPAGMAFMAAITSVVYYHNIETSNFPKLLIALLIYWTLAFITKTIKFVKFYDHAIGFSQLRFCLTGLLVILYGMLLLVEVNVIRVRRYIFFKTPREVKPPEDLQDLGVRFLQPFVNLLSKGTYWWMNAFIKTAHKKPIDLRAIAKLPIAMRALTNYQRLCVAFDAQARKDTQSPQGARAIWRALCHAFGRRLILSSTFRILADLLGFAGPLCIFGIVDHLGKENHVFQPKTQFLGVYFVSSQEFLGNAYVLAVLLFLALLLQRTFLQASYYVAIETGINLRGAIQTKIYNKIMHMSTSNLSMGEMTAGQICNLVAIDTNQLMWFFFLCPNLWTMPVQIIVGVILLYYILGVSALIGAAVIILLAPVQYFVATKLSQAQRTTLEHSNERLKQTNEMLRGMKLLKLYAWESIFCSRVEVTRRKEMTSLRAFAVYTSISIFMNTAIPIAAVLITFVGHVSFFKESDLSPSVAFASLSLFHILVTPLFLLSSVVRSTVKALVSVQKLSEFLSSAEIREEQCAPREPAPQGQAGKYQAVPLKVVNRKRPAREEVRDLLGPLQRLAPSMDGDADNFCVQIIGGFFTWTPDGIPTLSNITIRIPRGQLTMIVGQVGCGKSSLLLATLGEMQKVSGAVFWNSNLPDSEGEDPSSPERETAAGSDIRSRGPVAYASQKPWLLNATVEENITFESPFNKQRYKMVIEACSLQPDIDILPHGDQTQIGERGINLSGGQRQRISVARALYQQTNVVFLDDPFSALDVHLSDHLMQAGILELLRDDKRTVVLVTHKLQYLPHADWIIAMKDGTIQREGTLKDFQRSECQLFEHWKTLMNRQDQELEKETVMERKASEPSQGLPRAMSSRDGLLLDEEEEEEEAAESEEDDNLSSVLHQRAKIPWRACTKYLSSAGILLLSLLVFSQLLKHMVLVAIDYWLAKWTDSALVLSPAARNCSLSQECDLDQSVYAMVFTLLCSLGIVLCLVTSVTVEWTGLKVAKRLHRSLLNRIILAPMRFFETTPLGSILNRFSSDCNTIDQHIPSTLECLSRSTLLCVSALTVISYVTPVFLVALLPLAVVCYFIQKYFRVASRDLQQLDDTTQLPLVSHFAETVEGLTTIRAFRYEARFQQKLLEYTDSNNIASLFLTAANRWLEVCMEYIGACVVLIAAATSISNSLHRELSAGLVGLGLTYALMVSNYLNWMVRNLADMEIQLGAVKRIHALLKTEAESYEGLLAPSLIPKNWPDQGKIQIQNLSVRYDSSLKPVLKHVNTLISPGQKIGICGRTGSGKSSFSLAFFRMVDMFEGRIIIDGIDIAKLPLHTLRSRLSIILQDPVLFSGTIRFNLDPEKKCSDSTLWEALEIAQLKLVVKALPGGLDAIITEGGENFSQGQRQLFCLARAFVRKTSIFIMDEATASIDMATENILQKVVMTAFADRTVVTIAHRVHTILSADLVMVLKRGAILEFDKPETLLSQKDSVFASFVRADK
T2 sequence (Q09427 whole entry): as above
T2 sequence (P70673 whole entry R176A): as the sequence (P70673 whole entry) above, with R176A counted along it
T1 sequence (Q09427 whole entry K134A): as the sequence (Q09427 whole entry) above, with K134A counted along it
T1 sequence (P70673 whole entry R176A): as the sequence (P70673 whole entry) above, with R176A counted along it
T4 sequence (Q09427 whole entry K134A): as the sequence (Q09427 whole entry) above, with K134A counted along it
T4 sequence (P70673 whole entry): as the sequence (P70673 whole entry) above

Take PI(3,4,5)P3: the “activation of KATP channels” value with KATP channels is on record as “activated equally well”.
Regarding “ATP-sensitive inward rectifier potassium channel Kir6.2 (pore subunit of the KATP channel) (not stated for the quoted measurement (this article's own constructs are rat Kir6.2, Rattus norvegicus, with hamster SUR1))”, the pKa in the series with His175 is given as 7.16.
In the case of `CCCCCCCC(=O)OC[C@H](COP(=O)(O)O[C@@H]1[C@H](O)[C@H](O)[C@@H](OP(=O)(O)O)[C@H](OP(=O)(O)O)[C@H]1O)OC(=O)CCCCCCC` [diC8-PIP2, diC8-PI(4,5)P2], the “reversibility of channel activation” value in the series with KATP channels (synthetic short-chain PIP2) is recorded as “readily reversible”.
For PI(4,5)P2 [PIP2], the “maximum fold-increase in currents after PIP2 exposure” value was 299.65 ± 121.72 fold and 299.65 fold in series [1]; 48.74 ± 18.25 fold and 48.74 fold in series [2]; 1.45 fold in series [3] (−50 mV, mean (± SEM)); 3.96 ± 0.47 fold and 3.96 fold in series [4]. Moreover, the “time of exposure in PIP2 for currents to reach maximum” value in series [1] was 419.33 ± 57.86 s and 419.33 s; in series [2] it was 298.57 ± 73.76 s and 298.57 s; in series [3] (−50 mV, mean (± SEM)), 33.17 ± 3.18 s and 33.17 s; in series [4], 193.83 ± 33.66 s and 193.83 s. Besides, the “PIP2 exposure until currents plateaued” value in series [3] was ≤ 1 min. The “activation of KATP channels” value in the series on KATP channels is given as “activated equally well”.
In the case of PI(4)P, the “activation of KATP channels” value in the series with KATP channels is “activated”.
With PI(3,4)P2, in the series on KATP channels, the “activation of KATP channels” value was “activated equally well”.

B1: rat Kir6.2^Q52R (natural protein)
chain: MLSRKGIIPEEYVLTRLAEDPTEPRYRTRERRARFVSKKGNCNVAHKNIRERGRFLQDVFTTLVDLKWPHTLLIFTMSFLCSWLLFAMVWWLIAFAHGDLAPGEGTNVPCVTSIHSFSSAFLFSIEVQVTIGFGGRMVTEECPLAILILIVQNIVGLMINAIMLGCIFMKTAQAHRRAETLIFSKHAVITLRHGRLCFMLRVGDLRKSMIISATIHMQVVRKTTSPEGEVVPLHQVDIPMENGVGGNSIFLVAPLIIYHVIDSNSPLYDLAPSDLHHHQDLEIIVILEGVVETTGITTQARTSYLADEILWGQRFVPIVAEEDGRYSVDYSKFGNTVKVPTPLCTARQLDEDRSLLDALTLASSRGPLRKRSVAVAKAKPKFSISPDSLS
notes: Kir6.2, rat, with the neonatal diabetes mutation Q52R; the models hold residues 32-352 (N-terminal 31 residues and the tail beyond 352 not resolved); Four Kir6.2 subunits form the pore of the channel with four SUR1 subunits; the gene was cloned into pShuttle/AdEasy; PDB 6BAA (WT channel) was the starting model; also called Kir6.2 (pore-forming subunit of the SUR1/Kir6.2^Q52R KATP channel); …
With B1, the “stoichiometry N” value in series [5] is 4.

Values taken from paper PMC10954709, “Structure of an open KATP channel reveals tandem PIP2 binding sites mediating the Kir6.2 and SUR1 regulatory interface” (Nature Communications, 2024).
